What was measured:
[1] = molecular target: T1, human GRIN1 (variant NR1-3) and GRIN2D expressed in HEK293 cells (Homo sapiens, UniProt O15399); assay: GluN2D PAM CIQ fluorescence assay (Fluo-8 calcium, FDSS 6000); type: cell-based; settings: relative to CIQ (100 uM) = 100%, read-out: NR2D Percent CIQ Avg Max Measured Effect
T1 construct: GenScript (GRIN2D synthesis) SC115601; host or cells: HEK293
Method: GluN2D PAM CIO Flourescence AssayHEK293 cells were transfected to express human GRIN1 (variant NR1-3, Origene, SKU #: SC115601, Rockville, Md.) and GRIN2D (NCBI locus NM_000836, sequence optimized and synthesized by GenScript) and grown as an adherent monolayer at 37° C., 5% CO2 in DMEM/Ham's F12+10% FBS (Hyclone SH3007.03T in the presence of 2.5 mM ARL-15896 (AdooQ Bioscience, Irvine Calif.). To prepare the cells for an experiment, they were rinsed with Dulbecco's PBS (Ca^2+ and Mg^2+ free) and detached from the flask with TrypLE™ Express (Life Technologies, Carlsbad, Calif.) using the manufacturer's recommended methods. Cells collected from the flask were washed twice in Ca^2+/Mg^2+-free Hanks Balanced Salt Solution+20 mM HEPES (HBSS), and counted and assessed for viability with trypan blue. Washed cells were then dye-loaded by resuspending in Fluo-8/AM calcium sensitive dye plus Component B (AAT Bioquest, Sunnyvale, Calif.) diluted in HBSS. To allow cells to take up fluo-8 dye, they were incubated in the dark for 15 min at 37° C., followed by 30 min at 22-25° C. After dye-loading, cells were washed and resuspended in HBSS and plated in 384-well plates (Falcon 353962; Corning, Big Flats, N.Y.) at 20,000-30,000 cells/well in a final volume of 25 μl/well. The cell plates were centrifuged at 200×g, for 2 minutes at 21° C., to create a monolayer of cells at the bottom of the wells.
To initiate an assay, 10 μl of test compound or buffer was added to each well of the cell plate and pre-incubated for 10 minutes in the dark. After 10 minutes, the cell plate was placed in a FDSS 6000 plate reader (Hamamatsu Photonics, Middlesex, N.J.); baseline fluorescence readings were collected for 20 seconds. Next, 25 μl of agonist solution (3 μM glutamate, 3 μM glycine, and 1 mM Ca^2+ in HBSS) was added and the change in fluorescence was recorded for 3 minutes.
Results were calculated by comparing the effects of test compounds to that of the literature standard GluN2C/D PAM CIQ (100 uM). The increase in fluorescence in the presence of CIQ minus the increase induced by glutamate+glycine alone was set to 100%. Responses induced by compounds that were larger than gain the presence of the standard concentration of CIQ were greater than 100% and lesser responses were less than 100%.

[2] = molecular target: T2, human GRIN1 (transcript variant NR1-3) and GRIN2D expressed in Xenopus oocytes (Homo sapiens, UniProt O15399); assay: NR2D oocyte potentiation assay (two-electrode voltage clamp); type: cell-based; settings: 10 uM test compound; glutamate and glycine 10 μM each; holding potential −40 mV
T2 construct: GenScript (GRIN2D synthesis) SC115601; host or cells: Xenopus oocytes injected with cRNA (1 GluN1 : 2 GluN2)
Procedure, shortened: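 Xenopus oocytes were defolliculated with collagenase, then injected with 50 nL of cRNA encoding human GluN1 (NR1-3 variant) and GluN2D mixed 1:2 and kept 72 h at 16° C. Two-electrode voltage clamp at −40 mV recorded currents; after 10 μM glutamate plus 10 μM glycine reached plateau, test compound was added until a new plateau formed.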

T2 sequence (O15399 28-1336, other chains not shown): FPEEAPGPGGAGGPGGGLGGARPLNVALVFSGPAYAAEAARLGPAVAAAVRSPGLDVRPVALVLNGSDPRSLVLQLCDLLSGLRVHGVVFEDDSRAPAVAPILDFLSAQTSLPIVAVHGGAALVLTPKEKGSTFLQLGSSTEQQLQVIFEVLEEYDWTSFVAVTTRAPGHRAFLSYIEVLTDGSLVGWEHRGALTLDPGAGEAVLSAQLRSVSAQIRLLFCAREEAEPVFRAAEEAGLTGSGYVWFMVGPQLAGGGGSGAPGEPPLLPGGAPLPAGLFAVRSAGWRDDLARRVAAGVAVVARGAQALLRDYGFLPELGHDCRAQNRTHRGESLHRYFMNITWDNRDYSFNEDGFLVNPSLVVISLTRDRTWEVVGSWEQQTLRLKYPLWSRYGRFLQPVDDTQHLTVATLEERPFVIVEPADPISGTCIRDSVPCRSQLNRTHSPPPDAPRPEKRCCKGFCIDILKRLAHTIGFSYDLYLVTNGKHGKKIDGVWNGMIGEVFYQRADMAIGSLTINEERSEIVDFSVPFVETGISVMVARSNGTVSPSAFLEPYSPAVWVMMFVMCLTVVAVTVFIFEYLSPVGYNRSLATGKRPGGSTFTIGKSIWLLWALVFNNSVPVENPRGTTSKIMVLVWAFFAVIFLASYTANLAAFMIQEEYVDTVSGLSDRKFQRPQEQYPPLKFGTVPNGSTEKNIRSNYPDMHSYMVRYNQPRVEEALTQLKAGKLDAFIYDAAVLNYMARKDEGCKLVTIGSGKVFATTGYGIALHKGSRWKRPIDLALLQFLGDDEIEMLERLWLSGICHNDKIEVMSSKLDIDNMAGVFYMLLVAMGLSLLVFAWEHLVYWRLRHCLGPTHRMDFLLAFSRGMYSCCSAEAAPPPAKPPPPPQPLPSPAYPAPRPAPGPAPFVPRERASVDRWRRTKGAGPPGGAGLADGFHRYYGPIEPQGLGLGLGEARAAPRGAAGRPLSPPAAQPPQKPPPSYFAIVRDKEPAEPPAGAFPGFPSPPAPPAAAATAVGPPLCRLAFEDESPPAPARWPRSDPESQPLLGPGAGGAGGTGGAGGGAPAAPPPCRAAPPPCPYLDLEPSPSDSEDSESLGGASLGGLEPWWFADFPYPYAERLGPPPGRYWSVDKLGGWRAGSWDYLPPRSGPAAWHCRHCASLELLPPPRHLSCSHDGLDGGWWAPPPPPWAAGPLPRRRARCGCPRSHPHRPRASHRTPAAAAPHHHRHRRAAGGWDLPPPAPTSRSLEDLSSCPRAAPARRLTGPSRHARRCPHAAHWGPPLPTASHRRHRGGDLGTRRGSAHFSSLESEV
T1 sequence (O15399 28-1336, other chains not shown): as above

Row | Compound | Emax [1] [%] | activation at 10 µM [2] [%]
1 | N#Cc1c(-c2cnc(C3CC3)nc2)nc2n(c1=O)CCCS2 [Example 178, 8-(2-cyclopropylpyrimidin-5-yl)-6-oxo-2H,3H,4H,6H-pyrimido[2,1-b][1,3]thiazine-7-carbonitrile] | 100 to 200 | 10 to 100
2 | CC(C)(C)c1ccc(-c2nc3n(c(=O)c2C#N)CC(O)CS3)cc1 (centres unmarked) [Example 200, 8-(4-tert-butylphenyl)-3,4-dihydro-3-hydroxy-6-oxo-2H,6H-pyrimido[2,1-b][1,3]thiazine-7-carbonitrile] | 50 to 100 | < 10
3 | CC(C)(C)c1ccc(-c2nc3n(c(=N)c2C#N)CCCS3)cc1 [Example 36, 8-(4-(tert-butyl)phenyl)-6-imino-3,4-dihydro-2H,6H-pyrimido[2,1-b][1,3]thiazine-7-carbonitrile] | 100 to 200 | 500 to 1000
4 | CC(C)(C)c1ccc(-c2nc3n(c(=O)c2C#N)CCCS3)cn1 [Example 174, 8-(6-tert-butyl-3-pyridinyl)-3,4-dihydro-6-oxo-2H,6H-pyrimido[2,1-b][1,3]thiazine-7-carbonitrile] | 100 to 200 | 500 to 1000
5 | CSc1ccc(-c2nc3n(c(=O)c2C#N)CCS3)cc1 [Example 207, 7-[4-(methylsulfanyl)phenyl]-5-oxo-2H,3H,5H-[1,3]thiazolo[3,2-a]pyrimidine-6-carbonitrile] | 100 to 200 | 
6 | CC(C)(C)c1ccc(-c2nc3n(c(=O)c2C#N)CC2(CC2)CS3)cc1 [Example 203, 8′-(4-tert-butylphenyl)-6′-oxo-4′,6′-dihydro-2′H-spiro[cyclopropane-1,3′-pyrimido[2,1-b][1,3]thiazine]-7′-carbonitrile] | 100 to 200 | 
7 | CC(C)(C)c1ccc(-c2nc3n(c(=O)c2C#N)CCCS3)s1 [Example 177, 8-(5-tert-butylthiophen-2-yl)-6-oxo-2H,3H,4H,6H-pyrimido[2,1-b][1,3]thiazine-7-carbonitrile] | 100 to 200 | 
8 | COc1ccc(-c2nc3n(c(=O)c2C#N)CCCS3)c(OC)c1 [Example 186, 8-(2,4-dimethoxyphenyl)-6-oxo-2H,3H,4H,6H-pyrimido[2,1-b][1,3]thiazine-7-carbonitrile] | 10 to 50 | 
9 | N#Cc1c(-c2ccc(-c3ccccc3)cc2F)nc2n(c1=O)CCCS2 [Example 194, 3,4-dihydro-8-(2-fluoro-4-phenylphenyl)-6-oxo-2H,6H-pyrimido[2,1-b][1,3]thiazine-7-carbonitrile] | 10 to 50 | 
10 | CC(C)(C)c1ccc(-c2nc3scc(N)n3c(=O)c2C#N)cc1 [Example 210, 3-amino-7-(4-tert-butylphenyl)-5-oxo-5H-thiazolo[3,2-a]pyrimidine-6-carbonitrile] | 10 to 50 | 
11 | Cc1ccc(-c2nc3n(c(=O)c2C#N)CCCS3)cc1 [Example 185, 8-(4-methylphenyl)-6-oxo-2H,3H,4H,6H-pyrimido[2,1-b][1,3]thiazine-7-carbonitrile] | 50 to 100 | 
12 | COc1ccccc1-c1nc2n(c(=O)c1C#N)CCCS2 [Example 188, 8-(2-methoxyphenyl)-6-oxo-2H,3H,4H,6H-pyrimido[2,1-b][1,3]thiazine-7-carbonitrile] | 10 to 50 | 
13 | C=C1CSc2nc(-c3ccc(C(C)(C)C)nc3)c(C#N)c(=O)n2C1 [Example 114, 8-(6-(tert-butyl)pyridin-3-yl)-3-methylene-6-oxo-3,4-dihydro-2H,6H-pyrimido[2,1-b][1,3]thiazine-7-carbonitrile] |  | > 1000
14 | CC(C)(C)c1ncc(-c2nc3n(c(=O)c2C#N)CC(CN2CCCC2)CS3)cc1F (centres unmarked) [Example 159, 8-(6-(tert-butyl)-5-fluoropyridin-3-yl)-6-oxo-3-(pyrrolidin-1-ylmethyl)-3,4-dihydro-2H,6H-pyrimido[2,1-b][1,3]thiazine-7-carbonitrile] |  | 10 to 100
15 | CC(CF)(CF)c1ccc(-c2nc3n(c(=O)c2C#N)CCCS3)cn1 [Example 156, 8-(6-(1,3-difluoro-2-methylpropan-2-yl)pyridin-3-yl)-6-oxo-3,4-dihydro-2H,6H-pyrimido[2,1-b][1,3]thiazine-7-carbonitrile] |  | 100 to 500
16 | C[C@H]1CSc2cc(-c3ccc(C(C)(C)C)nc3)c(C#N)c(=O)n2C1 [Example 96, (R)-8-(6-(tert-butyl)pyridin-3-yl)-3-methyl-6-oxo-3,4-dihydro-2H,6H-pyrido[2,1-b][1,3]thiazine-7-carbonitrile] |  | > 1000
17 | CC(C)(C)c1ncc(-c2nc3n(c(=O)c2C#N)CC(CO)CS3)cn1 (centres unmarked) [Example 90, 8-(2-(tert-butyl)pyrimidin-5-yl)-3-(hydroxymethyl)-6-oxo-3,4-dihydro-2H,6H-pyrimido[2,1-b][1,3]thiazine-7-carbonitrile] |  | 500 to 1000
18 | C[C@@H]1CSc2cc(-c3ccc(C(C)(C)C)nc3)c(C#N)c(=O)n2C1 [Example 97, (S)-8-(6-(tert-butyl)pyridin-3-yl)-3-methyl-6-oxo-3,4-dihydro-2H,6H-pyrido[2,1-b][1,3]thiazine-7-carbonitrile] |  | > 1000
19 | CC1CSc2nc(-c3cnc(C(C)(C)C)c(F)c3)c(C#N)c(=N)n2C1 (centres unmarked) [Example 41, 8-(6-(tert-butyl)-5-fluoropyridin-3-yl)-6-imino-3-methyl-3,4-dihydro-2H,6H-pyrimido[2,1-b][1,3]thiazine-7-carbonitrile] |  | > 1000

Now from value to compound:

Row | Emax [1] [%] | activation at 10 µM [2] [%] | Compound
20 | 100 to 200 | > 1000 | CC1CSc2nc(-c3ccc(C(C)(C)C)cc3)c(C#N)c(=O)n2C1 (centres unmarked) [Example 199, 8-(4-tert-butylphenyl)-3,4-dihydro-3-methyl-6-oxo-2H,6H-pyrimido[2,1-b][1,3]thiazine-7-carbonitrile]
21 | 50 to 100 | 100 to 500 | CC1CSc2nc(-c3ccc(N(C)C)nc3)c(C#N)c(=O)n2C1 (centres unmarked) [Example 67, 8-[6-(dimethylamino)pyridin-3-yl]-3-methyl-6-oxo-2H,3H,4H,6H-pyrimido[2,1-b][1,3]thiazine-7-carbonitrile]
22 | > 200 | > 1000 | CC1CSc2nc(-c3cnc(C(C)(C)C)nc3)c(C#N)c(=O)n2C1 (centres unmarked) [Example 49, 8-(2-(tert-butyl)pyrimidin-5-yl)-3-methyl-6-oxo-3,4-dihydro-2H,6H-pyrimido[2,1-b][1,3]thiazine-7-carbonitrile]
23 |  | 10 to 100 | CC(C)(C)c1ccc(-c2nc3n(c(=O)c2C#N)CC(F)CS3)cn1 (centres unmarked) [Example 16, 8-(6-(tert-butyl)pyridin-3-yl)-3-fluoro-6-oxo-3,4-dihydro-2H,6H-pyrimido[2,1-b][1,3]thiazine-7-carbonitrile]
24 |  | > 1000 | CC1CSc2nc(-c3cnc(C(C)(C)C)c(F)c3)c(C#N)c(=O)n2C1 (centres unmarked) [Example 76, 8-(6-(tert-butyl)-5-fluoropyridin-3-yl)-3-methyl-6-oxo-3,4-dihydro-2H,6H-pyrimido[2,1-b][1,3]thiazine-7-carbonitrile]
25 |  | 500 to 1000 | COCC1CSc2nc(-c3ccc(C(C)(C)C)nc3)c(C#N)c(=O)n2C1 (centres unmarked) [Example 123, 8-(6-(tert-butyl)pyridin-3-yl)-3-(methoxymethyl)-6-oxo-3,4-dihydro-2H,6H-pyrimido[2,1-b][1,3]thiazine-7-carbonitrile]
26 |  | 100 to 500 | CC(C)C1CSc2nc(-c3ccc(C(C)(C)C)nc3)c(C#N)c(=O)n2C1 (centres unmarked) [Example 80, 8-(6-(tert-butyl)pyridin-3-yl)-3-isopropyl-6-oxo-3,4-dihydro-2H,6H-pyrimido[2,1-b][1,3]thiazine-7-carbonitrile]
27 |  | > 1000 | CC1CSc2nc(-c3cnc(C(C)(C)C)c(O)c3)c(C#N)c(=O)n2C1 (centres unmarked) [Example 126, 8-(6-(tert-butyl)-5-hydroxypyridin-3-yl)-3-methyl-6-oxo-3,4-dihydro-2H,6H-pyrimido[2,1-b][1,3]thiazine-7-carbonitrile]
28 |  | > 1000 | C[C@H]1CSc2nc(-c3cnc(C(C)(C)C)c(O)c3)c(C#N)c(=O)n2C1 [Example 139, (R)-8-(6-(tert-butyl)-5-hydroxypyridin-3-yl)-3-methyl-6-oxo-3,4-dihydro-2H,6H-pyrimido[2,1-b][1,3]thiazine-7-carbonitrile]

Reference: patent US11807650B2, “NMDA receptor modulators and uses thereof” (Novartis AG, priority 2016, dated 2023)
